Measurements from patent US6221865A, “Inhibitors of protein isoprenyl transferases” (priority 1998, dated 2001).
Where a name gives a salt, the structure may show the parent alone.

Molecular target: T1, protein farnesyltransferase (Rattus norvegicus, UniProt Q02293+Q04631)
T1 construct: The enzyme is purified according to Reiss, Y., et al., Cell, 62: 81-88 (1990), utilizing steps one through three; from tissue; host or cells: rat brain
Assay: Inhibition of farnesyltransferase (scintillation proximity assay, rat brain enzyme, biotin-K Ras B fragment substrate)
Type: biochemical
Settings: 1 × 10^-5 M (Table 1)
How it was run: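 Enzyme from rat brain, partly purified (steps one to three), assayed by SPA kit using 0.1 mM final biotin-K Ras B peptide as prenyl acceptor rather than biotin-lamin. Activity given as percent inhibition.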

T1 sequence (Q02293 whole entry, one chain of several): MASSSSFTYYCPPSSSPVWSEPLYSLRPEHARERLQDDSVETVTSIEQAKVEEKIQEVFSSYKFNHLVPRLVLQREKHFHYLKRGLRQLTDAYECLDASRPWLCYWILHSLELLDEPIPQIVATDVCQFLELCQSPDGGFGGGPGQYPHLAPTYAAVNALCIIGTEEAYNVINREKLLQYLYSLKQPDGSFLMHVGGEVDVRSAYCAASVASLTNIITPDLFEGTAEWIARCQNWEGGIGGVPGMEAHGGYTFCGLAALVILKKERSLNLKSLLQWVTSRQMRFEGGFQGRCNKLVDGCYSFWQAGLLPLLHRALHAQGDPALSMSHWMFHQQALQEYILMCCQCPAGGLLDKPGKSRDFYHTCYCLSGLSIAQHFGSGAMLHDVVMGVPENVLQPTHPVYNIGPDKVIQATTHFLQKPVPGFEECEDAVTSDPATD

Compound	% inhibition of farnesyltransferase at 1 × 10^-5 M
CSCC[C@H](NC(=O)c1ccc(CNc2cccc(CCC(=O)O)c2)cc1-c1ccccc1)C(=O)O [Example 685]	55%
CSCC[C@H](NC(=O)c1ccc(CNc2ccc(F)cc2)cc1-c1ccccc1)C(=O)O [Example 687]	78%

Same assay, conditions: 1 × 10^-6 M (Table 2)

Compound	% inhibition of farnesyltransferase at 1 × 10^-6 M
CSCC[C@H](NC(=O)c1ccc(CN(C(=O)OC(C)(C)C)C(CC2CCCCC2)CC2CCCCC2)cc1-c1ccccc1C)C(=O)O [Example 886]	35%
CSCC[C@H](NC(=O)c1ccc(COCCC23CC4CC(CC(C4)C2)C3)cc1-c1ccccc1C)C(=O)O [Example 404]	98%
CSCC[C@H](NC(=O)c1ccc(COCCCC2CCCCC2)cc1-c1ccccc1C)C(=O)O [Example 405]	98%
CSCC[C@H](NC(=O)c1ccc(CNc2ccccc2F)cc1-c1ccccc1)C(=O)O [Example 642]	48%
CSCC[C@H](NC(=O)c1ccc(NC(=O)OCCCl)cc1-c1ccccc1)C(=O)O [Example 979]	26%
COc1cccc(CNCc2ccc(C(=O)N[C@@H](CCSC)C(=O)O)c(-c3ccccc3)c2)c1 [Example 652]	41%
CSCC[C@H](NC(=O)c1ccc(CN(C)CC(O)CO)cc1-c1ccccc1C)C(=O)O (stereo partly drawn) [Example 719]	90%
CSCC[C@H](NC(=O)c1ccc(OCCCC2CCCCC2)cc1-c1ccccc1C)C(=O)O [Example 564]	98%
Cc1ccccc1-c1cc(COCc2ccccc2)ccc1C(=O)N[C@@H](CCS(C)(=O)=O)C(=O)O [Example 576]	88%
CSCC[C@H](NC(=O)c1ccc(CN(Cc2cncs2)S(C)(=O)=O)cc1-c1ccccc1C)C(=O)O [Example 878]	95%
CSCC[C@H](NC(=O)c1ccc(OCCOC2CCCCC2)cc1-c1ccccc1C)C(=O)[O-].[Li+] [Example 565]	94%
CSCC[C@H](NC(=O)c1ccc(COC2(Cc3ccccc3)CCN(C(=O)OC(C)(C)C)CC2)cc1-c1ccccc1C)C(=O)[O-].[Li+] [Example 809]	78%
CSCC[C@H](NC(=O)c1ccc(COCCCc2ccccc2)cc1-c1ccccc1C)C(=O)[O-].[Li+] [Example 595]	97%
CSCC[C@H](NC(=O)c1ccc(CSCc2ccccc2C)cc1-c1ccccc1C)C(=O)[O-].[Li+] [Example 557]	93%
CSCC[C@H](NC(=O)c1ccc(CN(Cc2ccccc2)c2ccccc2Cl)cc1-c1ccccc1C)C(=O)O [Example 846]	85%
CSCC[C@H](NC(=O)c1ccc(NCC(CO)CC2CCCCC2)cc1-c1ccccc1C)C(=O)O (stereo partly drawn) [Example 479]	95%
CSCC[C@H](NC(=O)c1ccc(CNCCSC(C)(C)C)cc1-c1ccccc1)C(=O)O [Example 627]	85%
CSCC[C@H](NC(=O)c1ccc(CN[C@H](CO)CC2CCCCC2)cc1-c1ccccc1C)C(=O)O [Example 617]	99%

Same assay, conditions: 1 × 10^-7 M (Table 3)

Compound	% inhibition of farnesyltransferase at 1 × 10^-7 M
CSCC[C@H](NC(=O)c1ccc(NC(=O)CN)cc1-c1ccccc1)C(=O)O [Example 748]	56%
CSCC[C@H](NC(=O)c1ccc(COCCc2ccc3ccccc3c2)cc1-c1ccccc1C)C(=O)[O-].[Li+] [Example 593]	86%
CSCC[C@H](NC(=O)c1ccc(COCc2ccc(-c3ccc(F)cc3)o2)cc1-c1ccc(F)cc1Cl)C(=O)[O-].[Li+] [Example 869]	92%
CCCCN(CCCC)Cc1ccc(C(=O)N[C@@H](CCSC)C(=O)O)c(-c2ccccc2C)c1 [Example 917]	78%
CSCC[C@H](NC(=O)c1ccc(COCc2ccc(C)cc2)cc1-c1ccccc1C)C(=O)[O-].[Li+] [Example 579]	92%
CCSC[C@H](CC1CCCCC1)N(Cc1ccc(C(=O)N[C@@H](CCSC)C(=O)O)c(-c2ccccc2C)c1)C(=O)OC(C)(C)C [Example 948]	75%
CSCC[C@H](NC(=O)c1ccc(CN[C@@H](CO)C2CCCCC2)cc1-c1ccccc1C)C(=O)O [Example 604]	86%
CSCC[C@H](NC(=O)c1ccc(NC[C@@H]2C[C@H](S)CN2)cc1-c1ccccc1)C(=O)O [Example 959]	> 50%
CSCC[C@H](NC(=O)c1ccc(COCc2cnc(-c3ccc(F)cc3)s2)cc1-c1ccccc1C)C(=O)O [Example 900]	95%
CSCC[C@H](NC(=O)c1ccc(CSc2nnc(N)s2)cc1-c1ccccc1C)C(=O)O [Example 734]	49%
COc1ccccc1CCOCc1ccc(C(=O)N[C@@H](CCSC)C(=O)O)c(-c2ccccc2C)c1 [Example 589]	91%

Same assay, conditions: 1 × 10^-8 M (Table 4)

Compound	% inhibition of farnesyltransferase at 1 × 10^-8 M
CSCC[C@H](NC(=O)c1ccc(COCc2occc2-c2ccc(Cl)cc2)cc1-c1ccccc1C)C(=O)[O-].[Li+] [Example 827]	77%
CC[C@H](CC1CCCCC1)NCc1ccc(C(=O)N[C@@H](CCSC)C(=O)O)c(-c2ccccc2C)c1 [Example 614]	92%
CSCC[C@H](NC(=O)c1ccc(CN(CCC2CCCCC2)Cc2cncs2)cc1-c1ccccc1C)C(=O)O [Example 986]	95%
CSCC[C@H](NC(=O)c1ccc(CN[C@H](CSC2CCCCC2)CC2CCCCC2)cc1-c1ccccc1C)C(=O)O [Example 766]	95%
CSCC[C@H](NC(=O)c1ccc(COCc2cnc(-c3ccccc3Cl)s2)cc1-c1ccccc1C)C(=O)[O-].[Li+] [Example 897]	76%
CCSC[C@H](CC1CCCCC1)OCc1ccc(C(=O)N[C@@H](CCSC)C(=O)O)c(-c2ccccc2C)c1 [Example 606]	93%
CSCC[C@H](NC(=O)c1ccc(CN(CCC2CCCCC2)C2CC2)cc1-c1ccccc1C)C(=O)O [Example 880]	95%
CSCC[C@H](NC(=O)c1ccc(COCc2cc(-c3ccc(Cl)cc3)co2)cc1-c1ccccc1C)C(=O)[O-].[Li+] [Example 904]	85%

Same assay, conditions: Table 6, ** = 0.01 μM (footnote); title prints 0.01 mM

Compound	% inhibition at 0.01 μM (**)
CSCC[C@H](NC(=O)c1ccc(CN(CCF)CCC2CCCCC2)cc1-c1ccccc1C)C(=O)O [Example 1094]	96%
CCSCC(CC1CCCCC1)NCc1cc(-c2ccccc2C)c(C(=O)N[C@@H](CCSC)C(=O)O)cc1OC (stereo partly drawn) [Example 1337]	83%

Same assay, conditions: read-out: % inhibition of farnesyltransferase at 1 × 10^-6 M; 1 × 10^-6 M (Table 2)

Compound	inhibition at 1 µM
CSCC[C@H](NC(=O)c1ccc(C=CCc2ccc3ccccc3c2)cc1-c1ccccc1C)C(=O)O (mixture of isomers) [Example 496, N-[4-(3-naphth-2-ylprop-1-enyl)-2-(2-methylphenyl)benzoyl]methionine lithium salt (1:1 mixture of olefin isomers)]	93%
Cc1ccccc1-c1cc(CNC(C)(C)Cc2ccccc2)ccc1C(=O)N[C@@H](CCS(C)(=O)=O)C(=O)O [Example 311]	97%
COc1ccc(CCNS(=O)(=O)c2ccc(C(=O)N[C@@H](CCSC)C(=O)O)c(-c3ccccc3C)c2)cc1OC [Example 776]	36%
CSCC[C@H](NC(=O)c1ccc(CN2CCC(OCc3ccccc3)C2)cc1-c1ccccc1C)C(=O)O (stereo partly drawn) [Example 988, N-[4-(3-benzyloxypyrrolidin-1-ylmethyl)-2-(2-methylphenyl)benzoyl]methionine]	92%
Cc1ccccc1-c1cc(CCc2ccc(Oc3ccccc3)cc2)ccc1C(=O)N[C@@H](CC[S+](C)[O-])C(=O)O (stereo partly drawn) [Example 463, N-[4-(2-(4-phenoxyphenyl)ethyl)-2-(2-methylphenyl)benzoyl]-2-amino-4-methylsulfinylbutanoic acid lithium salt]	91%
CSCC[C@H](NC(=O)c1ccc(-c2ccccc2-c2ccccc2)cc1-c1ccccc1C)C(=O)O [Example 786, N-[4-(2-phenylphenyl)-2-(2-methylphenyl)benzoyl]methionine lithium salt]	34%
CSCC[C@H](NC(=O)c1ccc(CN(C2CC2)C2(CC3CCCCC3)CCC2)cc1-c1ccccc1C)C(=O)O [Example 330]	98%
Cc1ccccc1-c1cc(CN(C2CC2)C2(Cc3ccccc3)CCCC2)ccc1C(=O)N[C@@H](CCS(C)(=O)=O)C(=O)O [Example 345]	91%
CSCC[C@H](NC(=O)c1ccc(CN(C(C)C)C2(Cc3ccccc3)CCC2)cc1-c1ccccc1C)C(=O)O [Example 331]	98%
CSCC[C@H](NC(=O)c1ccc(C=Cc2ccccc2Oc2ccccc2)cc1-c1ccccc1C)C(=O)O [Example 453, N-[4-(2-(2-phenoxyphenyl)ethen-1-yl)-2-(2-methylphenyl)benzoyl]methionine lithium salt]	90%
CSCC[C@H](NC(=O)c1ccc(-c2ccc(-c3ccccc3)cc2)cc1-c1ccccc1C)C(=O)O [Example 788, N-[4-(4-phenylphenyl)-2-(2-methylphenyl)benzoyl]methionine lithium salt]	44%
Cc1ccccc1-c1cc(CN(C)C(C)(C)CC2CCCCC2)ccc1C(=O)N[C@@H](CCS(C)(=O)=O)C(=O)O [Example 314]	97%

Same assay, conditions: read-out: % inhibition of farnesyltransferase at 1 × 10^-7 M; 1 × 10^-7 M (Table 3)

Compound	inhibition at 0.1 µM
CSCC[C@H](NC(=O)c1ccc(CCc2ccc(Oc3cccc(Cl)c3)cc2)cc1-c1ccccc1C)C(=O)O [Example 859, N-[4-(2-(4-(3-chlorophenoxy)phenyl)ethyl)-2-(2-methylphenyl)benzoyl]methionine]	86%
